For data set [1], the target named is human D2 receptor (Homo sapiens (Human), UniProt P14416). The data set is described as follows: Radioligand binding ([3H]-spiperone) to cloned receptors expressed in HEK-293 EBNA cells. The following applies: HEK293 EBNA cell membranes expressing human D2. On the procedure:
(§1) HEK293 EBNA cells were transiently transfected with expression plasmids encoding for the human D2 or D3 or for the human 5-HT2A receptor, respectively. The cells were harvested 48 h post-transfection, washed three times with cold PBS and stored at −80° C. prior to use. The pellet was suspended in cold 50 mM Tris-HCl buffer comprising 10 mM EDTA (pH 7.4) and was homogenized with a Polytron (Kinematica AG, Basel, Switzerland) for 20-30 sec at 12.000 rpm. After centrifugation at 48.000×g for 30 min at 4° C., the pellet was resuspended in cold 10 mM Tris-HCl buffer comprising 0.1 mM EDTA (pH 7.4), homogenized, and centrifuged as above. This pellet was further resuspended in a smaller volume of ice cold 10 mM Tris-HCl buffer comprising 0.1 mM EDTA (pH 7.4) and homogenized with a Polytron for 20-30 sec at 12.000 rpm. The protein content of this homogenate was determined with the Bio-Rad (Bradford) Protein Assay (Biorad Laboratories GmbH, München, Germany) according to the instructions of the manufacturer using gamma globulin as the standard. This homogenate was stored at −80° C. in aliquots and thawed immediately prior to use.
(§2) Aliquots of membrane preparations were thawed at RT, resupended in assay buffer (D2, D3: 50 mM Tris-HCl, 120 mM NaCl, 5 mM MgCl2, 1 mM EDTA, 5 mM KCl, 1.5 mM CaCl2, pH=7.4; 5-HT2A: 50 mM Tris-HCl, 10 mM MgCl2, 1 mM EGTA, pH=7.4), homogenized with a Polytron for 20-30 sec at 12.000 rpm and adjusted to a final concentration of approximately 7.5 μg protein/well (D2, D3) and 15 μg protein/well (5-HT2A), respectively.
(§3) The binding affinity (Ki) of the compounds was determined using radioligand binding. Membranes were incubated in a total volume of 200 μl with a fixed concentration of radioligand (final concentration approximately 0.7 nM [^3H]-spiperone for D2, 0.5 nM [^3H]-spiperone for D3, and 1.1 nM [^3H]-ketanserin for 5-HT2A) and ten concentrations of test compound in ranging between 10 μM-0.1 nM for 1 h at RT. At the end of the incubation, the reaction mixtures were filtered on to unifilter 96-well white microplates with bonded GF/C filters (Packard BioScience, Zürich, Switzerland; preincubated for 1 h in 0.1% polyethylenimine (PEI) in assay buffer) with a Filtermate 196 harvester (Packard BioScience) and washed 3 times with cold assay buffer. The nonspecific binding was determined with equally composed reaction mixtures in the presence of 10 μM unlabelled spiperone. Per well 45 μl of Microscint 40 (Perkin Elmer, Schwerzenbach, Switzerland) was added, plates for sealed, shaken for 20 min and counted for 3 min on a Topcount Microplate Scintillation Counter (Can berra Packard SA, Zürich, Switzerland) with quenching correction.
(§4) The CPM value for each duplicate of a concentration of competing compound was averaged (y1), then the % specific binding was calculated according to the equation (((y1−non-specific)/(total binding−non-specific))×100). Graphs were plotted with the % specific binding using XLfit, a curve fitting program that iteratively plots the data using Levenberg-Marquardt algorithm. The single site competition analysis equation used was y=A+((B−A)/(1+((x/C)D))), where y is the % specific binding, A is the minimum y, B is the maximum y, C is the IC50, x is the log 10 of the concentration of the competing compound and D is the slope of the curve (the Hill Coefficient). […] The affinity constant (Ki) was calculated using the Cheng-Prusoff equation Ki=(IC50/1+([L]/Kd), where [L] is the concentration of radioligand and Kd is the dissociation constant of the radioligand at the receptor as determined by the saturation isotherm.

In data set [2] the target is human D3 receptor (Homo sapiens (Human), UniProt P35462). The data set is described as above. To be noted: HEK293 EBNA cell membranes expressing human D3. On the procedure:
as §1, §2, §3, §4

In data set [3] the target is human 5-HT2A receptor (Homo sapiens (Human), UniProt P28223). The data set is described as follows: Radioligand binding ([3H]-ketanserin) to cloned receptors expressed in HEK-293 EBNA cells. To be noted: HEK293 EBNA cell membranes expressing human 5-HT2A. On the procedure:
as §1, §2, §3, §4

Sequence of human 5-HT2A receptor (P28223 whole entry): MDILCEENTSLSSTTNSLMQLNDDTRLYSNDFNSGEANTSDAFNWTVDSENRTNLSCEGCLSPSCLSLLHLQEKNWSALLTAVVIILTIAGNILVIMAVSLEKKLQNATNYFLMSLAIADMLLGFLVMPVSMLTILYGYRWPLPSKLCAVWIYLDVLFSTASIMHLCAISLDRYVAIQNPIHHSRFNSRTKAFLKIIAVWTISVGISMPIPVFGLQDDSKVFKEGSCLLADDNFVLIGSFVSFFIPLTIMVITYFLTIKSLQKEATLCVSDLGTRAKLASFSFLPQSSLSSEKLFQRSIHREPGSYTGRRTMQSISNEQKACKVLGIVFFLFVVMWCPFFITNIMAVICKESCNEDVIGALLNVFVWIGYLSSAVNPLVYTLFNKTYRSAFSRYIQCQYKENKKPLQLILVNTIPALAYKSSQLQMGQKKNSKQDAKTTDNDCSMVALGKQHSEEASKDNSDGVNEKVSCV
Sequence of human D2 receptor (P14416 whole entry): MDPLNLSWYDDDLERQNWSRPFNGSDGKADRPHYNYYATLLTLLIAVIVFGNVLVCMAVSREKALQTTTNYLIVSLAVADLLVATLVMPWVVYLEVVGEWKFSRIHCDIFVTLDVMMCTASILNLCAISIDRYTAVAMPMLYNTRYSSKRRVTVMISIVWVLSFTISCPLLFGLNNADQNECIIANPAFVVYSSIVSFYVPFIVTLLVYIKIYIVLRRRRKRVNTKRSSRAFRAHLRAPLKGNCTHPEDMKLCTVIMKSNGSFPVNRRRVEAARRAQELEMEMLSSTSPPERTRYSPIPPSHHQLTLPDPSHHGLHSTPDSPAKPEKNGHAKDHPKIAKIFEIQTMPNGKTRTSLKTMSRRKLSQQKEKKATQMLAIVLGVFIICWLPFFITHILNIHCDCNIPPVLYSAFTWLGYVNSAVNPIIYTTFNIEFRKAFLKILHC
Sequence of human D3 receptor (P35462 whole entry): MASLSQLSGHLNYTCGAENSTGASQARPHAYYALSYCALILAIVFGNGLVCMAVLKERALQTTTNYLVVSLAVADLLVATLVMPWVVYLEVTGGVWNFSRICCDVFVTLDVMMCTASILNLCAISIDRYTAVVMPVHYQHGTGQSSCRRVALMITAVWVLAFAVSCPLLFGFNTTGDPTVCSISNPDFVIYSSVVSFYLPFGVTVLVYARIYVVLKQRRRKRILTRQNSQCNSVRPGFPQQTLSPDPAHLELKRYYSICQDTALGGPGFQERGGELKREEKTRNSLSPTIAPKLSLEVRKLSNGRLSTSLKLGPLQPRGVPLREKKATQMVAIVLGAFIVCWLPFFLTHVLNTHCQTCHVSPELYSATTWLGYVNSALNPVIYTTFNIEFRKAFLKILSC

The compound `O=C(CC1COCCO1)N[C@H]1CC[C@H](CCN2CCC(c3cccc4occc34)CC2)CC1` (mixture of isomers) [Example 12, trans-N-{4-[2-(4-Benzofuran-4-yl-piperidin-1-yl)-ethyl]-cyclohexyl}-rac-2-[1,4]dioxan-2-yl-acetamide] showed a melting point of 165 °C. In addition, the Ki in data set [1] was 219 nM. Also, the inhibition constant Ki in data set [2] came to 5.4 nM.
`O=C(CC1COCCO1)N[C@H]1CC[C@H](CCN2CCC(c3cccc4c3CCO4)CC2)CC1` (mixture of isomers) [Example 16, trans-N-(4-{2-[4-(2,3-Dihydro-benzofuran-4-yl)-piperidin-1-yl]-ethyl}-cyclohexyl)-rac-2-[1,4]dioxan-2-yl-acetamide]: the melting point was 192 °C. Besides, the inhibition constant Ki in data set [3] amounted to 22.3 nM.
Consider `O=C(CC1CCCO1)N[C@H]1CC[C@H](CCN2CCC(c3cccc4c3CCO4)CC2)CC1` (mixture of isomers) [Example 25, trans-N-(4-{2-[4-(2,3-Dihydro-benzofuran-4-yl)-piperidin-1-yl]-ethyl}-cyclohexyl)-rac-2-(tetrahydro-furan-2-yl)-acetamide], for which the melting point turned out to be 192 °C.
Take `O=C(N[C@H]1CC[C@H](CCN2CCC(c3cccc4c3CCO4)CC2)CC1)C(O)C(F)(F)F` (mixture of isomers) [Example 37, trans-(RS)—N-(4-{2-[4-(2,3-Dihydro-benzofuran-4-yl)-piperidin-1-yl]-ethyl}-cyclohexyl)-3,3,3-trifluoro-2-hydroxy-propionamide]: the melting point came to 179 °C. For the same compound, the Ki in data set [1] was determined as 241 nM. The Ki in data set [2] amounted to 9.2 nM.
In the case of `O=C(N[C@H]1CC[C@H](CCN2CCC(c3cccc4c3CCO4)CC2)CC1)C1CCOC1` (mixture of isomers) [Example 52, (RS)-Tetrahydro-furan-3-carboxylic acid trans-(4-{2-[4-(2,3-dihydro-benzofuran-4-yl)-piperidin-1-yl]-ethyl}-cyclohexyl)-amide], the melting point was found to be 211 °C. Also, in data set [1], the inhibition constant (Ki) is 135 nM. The Ki in data set [2] is 5.5 nM. The inhibitory constant (Ki) in data set [3] was found to be 24.6 nM.
For the compound `O=C(N[C@H]1CC[C@H](CCN2CCC(c3cccc4c3CCO4)CC2)CC1)C1CCCO1` (mixture of isomers) [Example 53, (RS)-Tetrahydro-furan-2-carboxylic acid trans-(4-{2-[4-(2,3-dihydro-benzofuran-4-yl)-piperidin-1-yl]-ethyl}-cyclohexyl)-amide], the melting point was found to be 160 °C. Besides, the inhibition constant Ki in data set [2] came to 41.5 nM. Also, the inhibition constant Ki in data set [3] was 13.1 nM.
On to `O=C(N[C@H]1CC[C@H](CCN2CCC(c3cccc4c3CCO4)CC2)CC1)C1CCCOC1` (mixture of isomers) [Example 54, (RS)-Tetrahydro-pyran-3-carboxylic acid trans-(4-{2-[4-(2,3-dihydro-benzofuran-4-yl)-piperidin-1-yl]-ethyl}-cyclohexyl)-amide], for which the melting point is 222 °C. The Ki in data set [1] came out at 633 nM. Further, the Ki in data set [3] was found to be 21.3 nM.
The matching figures for `CCC(C)C(=O)N[C@H]1CC[C@H](CCN2CCC(c3cccc4c3CCO4)CC2)CC1` (mixture of isomers) [Example 62, trans-N-(4-{2-[4-(2,3-Dihydro-benzofuran-4-yl)-piperidin-1-yl]-ethyl}-cyclohexyl)-(RS)-2-methyl-butyramide]: 210 °C, 1200 nM and 64.4 nM.
`CC(=O)N[C@H]1CC[C@H](CCN2CCC(c3cccc4occc34)CC2)CC1` [Example 1, trans-N-{4-[2-(4-Benzofuran-4-yl-piperidin-1-yl)-ethyl]-cyclohexyl}-acetamide] showed a melting point of 167 °C. The Ki in data set [1] amounted to 187 nM. The Ki in data set [2] stood at 2.9 nM. Further, the Ki in data set [3] was determined as 6.8 nM.
On the same counts, the results for `COCCC(=O)N[C@H]1CC[C@H](CCN2CCC(c3cccc4occc34)CC2)CC1` [Example 2, trans-N-{4-[2-(4-Benzofuran-4-yl-piperidin-1-yl)-ethyl]-cyclohexyl}-3-methoxy-propionamide] are 154 °C, 288 nM, 3.1 nM and 7.1 nM.
On the same counts, the results for `O=C(N[C@H]1CC[C@H](CCN2CCC(c3cccc4occc34)CC2)CC1)C1CCOCC1` [Example 3, Tetrahydro-pyran-4-carboxylic acid trans-{4-[2-(4-benzofuran-4-yl-piperidin-1-yl)-ethyl]-cyclohexyl}-amide] are 217 °C, 305 nM, 11.9 nM and 2.2 nM.
The matching figures for `O=C(CC1CCOCC1)N[C@H]1CC[C@H](CCN2CCC(c3cccc4occc34)CC2)CC1` [Example 4, trans-N-{4-[2-(4-Benzofuran-4-yl-piperidin-1-yl)-ethyl]-cyclohexyl}-2-(tetrahydro-pyran-4-yl)-acetamide]: 181 °C, 219 nM, 5.7 nM and 9 nM.
In the case of `CC(=O)N[C@H]1CC[C@H](CCN2CCC(c3cccc4c3CCO4)CC2)CC1` [Example 5, trans-N-(4-{2-[4-(2,3-Dihydro-benzofuran-4-yl)-piperidin-1-yl]-ethyl}-cyclohexyl)-acetamide], the melting point was 183 °C. Besides, the inhibitory constant (Ki) in data set [1] is 298 nM. For the same compound, the inhibitory constant (Ki) in data set [2] was 6 nM. Besides, in data set [3], the inhibition constant Ki amounted to 37.2 nM.
Compound `O=C(C[C@@H]1COCCO1)N[C@H]1CC[C@H](CCN2CCC(c3cccc4c3CCO4)CC2)CC1` [Example 21, trans-N-(4-{2-[4-(2,3-Dihydro-benzofuran-4-yl)-piperidin-1-yl]-ethyl}-cyclohexyl)-(R)-2-[1,4]dioxan-2-yl-acetamide] had a melting point of 190 °C. In addition, the Ki in data set [3] was 27.9 nM.
The matching figures for `O=C(C[C@H]1COCCO1)N[C@H]1CC[C@H](CCN2CCC(c3cccc4c3CCO4)CC2)CC1` [Example 22, trans-N-(4-{2-[4-(2,3-Dihydro-benzofuran-4-yl)-piperidin-1-yl]-ethyl}-cyclohexyl)-(8)-2-[1,4]dioxan-2-yl-acetamide]: 190 °C and 19.4 nM.
As to `O=C(C[C@H]1CCCO1)N[C@H]1CC[C@H](CCN2CCC(c3cccc4c3CCO4)CC2)CC1` [Example 31, trans-N-(4-{2-[4-(2,3-Dihydro-benzofuran-4-yl)-piperidin-1-yl]-ethyl}-cyclohexyl)-(R)-2-(tetrahydro-furan-2-yl)-acetamide], the melting point is 192 °C.
As to `O=C(C[C@@H]1CCCO1)N[C@H]1CC[C@H](CCN2CCC(c3cccc4c3CCO4)CC2)CC1` [Example 32, trans-N-(4-{2-[4-(2,3-Dihydro-benzofuran-4-yl)-piperidin-1-yl]-ethyl}-cyclohexyl)-(S)-2-(tetrahydro-furan-2-yl)-acetamide], the melting point turned out to be 192 °C.
On to `O=C(N[C@H]1CC[C@H](CCN2CCC(c3cccc4c3CCO4)CC2)CC1)C1(O)CCC1` [Example 39, 1-Hydroxy-cyclobutanecarboxylic acid trans-(4-{2-[4-(2,3-dihydro-benzofuran-4-yl)-piperidin-1-yl]-ethyl}-cyclohexyl)-amide], for which the Ki turned out to be 306 nM in data set [1], 27.3 nM in data set [2] and 12.3 nM in data set [3].

What is called Ki is a dissociation constant, usually derived from enzyme kinetics or from competition with a known ligand. In general, melting point refers to the temperature of the solid-liquid transition.

(Values after patent US8877778B2, “Benzofurane compounds” (Hoffmann-La Roche Inc., priority 2010, dated 2014).)
